This note sets out measurements from US10344049B2, “Substituted steroids for the treatment of cancer” (AQUAVAN TECHNOLOGY CO., LTD., priority 2017, dated 2019).

Holding throughout (assay type): cell-based
Assay [1] relates to human lung cancer cells A549. As to the kind of experiment: Cell viability test (Resazurin), A549 cells. How it is done: (§1) Cell viability was determined with Resazurin (at a final concentration of 25 μg/mL).
(In general: Alamar Blue is a resazurin reagent that responds to reducing activity.)

Assay [2] relates to human Glioblastoma cells U87-MG. Description: Cell viability test (Resazurin), U87-MG cells. On the set-up: evaluation of ability to inhibit cell growth activity (IC50): scale not given here. How it is done:
as §1

In assay [3] the test system is human breast cancer cells MDA-MB-468. As to the kind of experiment: Cell viability test (Resazurin), MDA-MB-468 cells. How it is done: as §1
Assay [4] deals with human liver cancer cells Mahlavu. Description: Cell viability test (Resazurin), Mahlavu cells. On the procedure:
as §1

In assay [5] the test system is human breast cancer cells MDA-MB-231. As to the kind of experiment: Cell viability test (Resazurin), MDA-MB-231 cells. Also on record: evaluation of ability to inhibit cell growth activity (IC50): scale not given here. How it is done:
as §1

Assay [6] concerns human colorectal cancer cells SW-480. As to the kind of experiment: Cell viability test (Resazurin), SW480 cells. On the set-up: evaluation of ability to inhibit cell growth activity (IC50): scale not given here. How it is done: as §1
The subject of assay [7] is African green monkey kidney cells Vero. Description: Cell viability test (Resazurin), Vero cells. On the procedure: as §1
Assay [8] concerns human leukemia cells U937. Description: Cell viability test (Resazurin), U937 cells. How it is done: as §1
Setting [9] is: A549 cells, 48 hours, 0.1% FCS, Resazurin, read-out: inhibitory concentrations of cell growth activity IC50.
Where [10] appears, read: A549 cells, grade of the IC50 of Table 2, read-out: evaluation of ability to inhibit cell growth activity (IC50).
Where [11] appears, read: 48 hours, 0.1% FCS, Resazurin, read-out: inhibitory concentrations of cell growth activity IC50.
[12] abbreviates: grade of the IC50 of Table 2, read-out: evaluation of ability to inhibit cell growth activity (IC50).
Where [13] appears, read: MDA-MB-468 cells, 48 hours, 0.1% FCS, Resazurin, read-out: inhibitory concentrations of cell growth activity IC50.
Setting [14] is: MDA-MB-468 cells, grade of the IC50 of Table 2, read-out: evaluation of ability to inhibit cell growth activity (IC50).
Setting [15] is: MDA-MB-231 cells, 48 hours, 0.1% FCS, Resazurin, read-out: inhibitory concentrations of cell growth activity IC50.
[16] abbreviates: SW480 cells, 48 hours, 0.1% FCS, Resazurin, read-out: inhibitory concentrations of cell growth activity IC50.
Setting [17] is: U937 cells, 48 hours, 0.1% FCS, Resazurin, read-out: inhibitory concentrations of cell growth activity IC50.
Setting [18] is: U937 cells, grade of the IC50 of Table 2, read-out: evaluation of ability to inhibit cell growth activity (IC50).
The mark [19] stands for this setting: Homo sapiens, A549, 48 h, A549 cells, 48 hours, 0.1% FCS, Resazurin, read-out: inhibitory concentrations of cell growth activity IC50.
Setting [20] is: Homo sapiens, A549, A549 cells, grade of the IC50 of Table 2, read-out: evaluation of ability to inhibit cell growth activity (IC50).
Setting [21] is: Homo sapiens, U-87 MG, 48 h, 0.1% FCS, Resazurin, read-out: inhibitory concentrations of cell growth activity IC50.
Where [22] appears, read: Homo sapiens, U-87 MG, grade of the IC50 of Table 2, read-out: evaluation of ability to inhibit cell growth activity (IC50).
Where [23] appears, read: Homo sapiens, MDA-MB-468, MDA-MB-468 cells, grade of the IC50 of Table 2, read-out: evaluation of ability to inhibit cell growth activity (IC50).
The mark [24] stands for this setting: Homo sapiens, Mahlavu, 48 h, 0.1% FCS, Resazurin, read-out: inhibitory concentrations of cell growth activity IC50.
[25] abbreviates: Homo sapiens, Mahlavu, grade of the IC50 of Table 2, read-out: evaluation of ability to inhibit cell growth activity (IC50).
Setting [26] is: Homo sapiens, MDA-MB-231, 48 h, MDA-MB-231 cells, 48 hours, 0.1% FCS, Resazurin, read-out: inhibitory concentrations of cell growth activity IC50.
[27] abbreviates: Homo sapiens, MDA-MB-231, MDA-MB-231 cells, grade of the IC50 of Table 2, read-out: evaluation of ability to inhibit cell growth activity (IC50).
The mark [28] stands for this setting: Homo sapiens, SW480, 48 h, SW480 cells, 48 hours, 0.1% FCS, Resazurin, read-out: inhibitory concentrations of cell growth activity IC50.
[29] abbreviates: Homo sapiens, SW480, SW480 cells, grade of the IC50 of Table 2, read-out: evaluation of ability to inhibit cell growth activity (IC50).
[30] abbreviates: Chlorocebus sabaeus, Vero, 48 h, 0.1% FCS, Resazurin, read-out: inhibitory concentrations of cell growth activity IC50.
The mark [31] stands for this setting: Chlorocebus sabaeus, Vero, grade of the IC50 of Table 2, read-out: evaluation of ability to inhibit cell growth activity (IC50).
[32] abbreviates: Homo sapiens, U-937, U937 cells, grade of the IC50 of Table 2, read-out: evaluation of ability to inhibit cell growth activity (IC50).

Like-named read-outs stand apart in the source and are kept apart here.

With `CC(C)=C[C@@H](C[C@@H](C)[C@H]1CC[C@@]2(C)[C@@H]3[C@@H](O)C=C4[C@@H](CC[C@H](O)C4(C)C)[C@]3(C=O)CC[C@]12C)O[C@@H]1O[C@H](CO)[C@@H](O)[C@H](O)[C@H]1O` [Compound 12], the IC50 in assay [1] (setting [9]) was 100 µM; in assay [1] (setting [10]), 64 to 256 µM; in assay [2] (setting [11]), 49 µM; in assay [2] (setting [12]), 16 to 64 µM; in assay [3] (setting [13]), 56.5 µM; in assay [3] (setting [14]) it was 16 to 64 µM. Also, the IC50 in assay [4] (setting [11]) is 70.3 µM; in assay [4] (setting [12]), 64 to 256 µM; in assay [5] (setting [15]), 41.7 µM; in assay [5] (MDA-MB-231 cells, grade of the IC50 of Table 2, read-out: evaluation of ability to inhibit cell growth activity (IC50)) it was 16 to 64 µM; in assay [6] (setting [16]), 98.6 µM; in assay [6] (SW480 cells, grade of the IC50 of Table 2, read-out: evaluation of ability to inhibit cell growth activity (IC50)), 64 to 256 µM. The IC50 in assay [7] (setting [11]) was 124 µM; in assay [7] (setting [12]), 64 to 256 µM; in assay [8] (setting [17]) it was 58.6 µM; in assay [8] (setting [18]), 16 to 64 µM.
Consider `C[C@H](C/C=C/C(C)(C)O)[C@H]1CC[C@@]2(C)[C@@H]3[C@@H](O)C=C4[C@@H](CC[C@H](O)C4(C)C)[C@]3(C=O)CC[C@]12C` [Compound 1], for which the IC50 in assay [1] (setting [19]) was > 256 µM; in assay [1] (setting [20]) it was > 256 µM; in assay [2] (setting [21]), 150 µM; in assay [2] (setting [22]) it was 64 to 256 µM; in assay [3] (Homo sapiens, MDA-MB-468, 48 h, MDA-MB-468 cells, 48 hours, 0.1% FCS, Resazurin, read-out: inhibitory concentrations of cell growth activity IC50), > 256 µM; in assay [3] (setting [23]) it was > 256 µM. The IC50 in assay [4] (setting [24]), in assay [4] (setting [25]), in assay [5] (setting [26]), in assay [5] (setting [27]), in assay [6] (setting [28]) and in assay [6] (setting [29]) was > 256 µM in each case. Moreover, the IC50 in assay [7] (setting [30]) is > 256 µM; in assay [7] (setting [31]), > 256 µM; in assay [8] (Homo sapiens, U-937, 48 h, U937 cells, 48 hours, 0.1% FCS, Resazurin, read-out: inhibitory concentrations of cell growth activity IC50), 36.6 µM; in assay [8] (setting [32]), 16 to 64 µM.
As for `CO[C@@H]1O[C@]23C=C[C@@H]4[C@@]1(CC[C@]1(C)[C@@H]([C@H](C)C/C=C/C(C)(C)OC)CC[C@@]41C)[C@@H]2CC[C@H](O)C3(C)C` [Compound 15], the IC50 in assay [1] (setting [19]), in assay [1] (setting [20]), in assay [2] (setting [21]), in assay [2] (setting [22]), in assay [3] (setting [13]) and in assay [3] (setting [14]) was > 256 µM in each case. Also, the IC50 in assay [4] (setting [24]), in assay [4] (setting [25]), in assay [5] (setting [26]), in assay [5] (setting [27]), in assay [6] (setting [28]) and in assay [6] (setting [29]) was > 256 µM each time. Also, the IC50 in assay [7] (setting [30]) is > 256 µM; in assay [7] (setting [31]) it was > 256 µM; in assay [8] (setting [32]), < 8 µM; in assay [8] (setting [17]), 4.28 µM.
On to `CO[C@H]1O[C@]23C=C[C@@H]4[C@@]1(CC[C@]1(C)[C@@H]([C@H](C)C/C=C/C(C)(C)O)CC[C@@]41C)[C@@H]2CC[C@H](O)C3(C)C` [Compound 20], for which the IC50 in assay [1] (setting [9]) is 20.1 µM; in assay [1] (setting [10]) it was 16 to 64 µM; in assay [2] (setting [11]), 12.2 µM; in assay [2] (setting [22]), 8 to 16 µM; in assay [3] (setting [23]), < 8 µM; in assay [3] (setting [13]), 6.9 µM. Moreover, the IC50 was 19.7 µM in assay [4] (setting [11]); 16 to 64 µM in assay [4] (setting [12]); 8 to 16 µM in assay [5] (setting [27]); 10.4 µM in assay [5] (setting [15]); 8 to 16 µM in assay [6] (setting [29]); 12.6 µM in assay [6] (setting [16]). The IC50 is 12.5 µM in assay [7] (setting [11]), 4.33 µM in assay [8] (setting [17]) and < 8 µM in assay [8] (setting [18]). Moreover, the “evaluation of ability to inhibit cell growth activity (IC50)” value in assay [2] (grade of the IC50 of Table 2) is “◯”; in assay [5] (MDA-MB-231 cells, grade of the IC50 of Table 2), “◯”; in assay [6] (SW480 cells, grade of the IC50 of Table 2), “◯”; in assay [7] (grade of the IC50 of Table 2), “◯”.
